Source: patent US12414940B2, “Method of treating malignant tumor by azabicyclic compound” (TAIHO PHARMACEUTICAL CO., LTD., priority 2018, dated 2025)

Tests used:
[1] = tested on: solid cancer patients; test: Phase I study in solid cancer patients: eye disorder related to treatment (ophthalmologic examination, CTCAE Ver. 4.03); assay type: in vivo
Description: The initial dose of Step 2 (level 1 of Step 2) was set to MTD (mg/m^2/day) of Step 1. The study was continued until the disease progressed or an intolerable adverse event occurred.
After determination of MTD for once-daily administration, administration was performed by once-daily administration, by alternate-day administration (repeated administration at cycles each involving one-day administration and one-day withdrawal period on the next day), or by a schedule involving administration for 5 consecutive days and 2-day withdrawal period, and evaluation was conducted.
In this test, ophthalmologic examination was conducted in order to evaluate eye disorder.
The ophthalmologic examination was carried out before enrollment, in the duration of administration, and during follow-up. In the duration of administration, ophthalmologic interview, visual acuity examination (corrected), intraocular pressure examination, fundus examination, slit-lamp microscopy, optical coherence tomography (OCT), and color perception examination were carried out for 21 days±1 day from the start of administration. Observation and examination before enrollment were carried out as immediately before the enrollment as possible. In addition to the determined ophthalmologic examination described above, ophthalmologic examination was appropriately carried out when eye problems were found by regular interview by clinical investigators or by declaration from patients themselves.

[2] = tested on: solid cancer patients; test: Phase I study in solid cancer patients: determination of maximum tolerated dose (MTD); assay type: in vivo, human; details: for MTD: oral
Description: Purpose: This study was conducted for the purpose of determining a maximum tolerated dose (MTD) and estimating a recommended dose (RD) and an administration method when compound 1 was administered with one cycle set to 21 days targeting solid cancer patients, and of evaluating safety and observing an antitumor effect when the compound 1 was administered with one cycle set to 21 days targeting the patients, for example.
Method: The compound 1 was repeatedly administered between meals once a day in Step 1, and orally administered between meals every other day in Step 2. In Step 1, the initial dose was set to 4.8 mg/m^2 (level 1), and the dose of the compound 1 at each level was determined depending on a body surface area. The initial dose of Step 2 (level 1 of Step 2) was set to MTD (mg/m^2/day) of Step 1. The study was continued until the disease progressed or an intolerable adverse event occurred.
The dose (mg/body) to a study subject was calculated as described below. Dose (mg/body)=Dose (mg/m^2)×Body surface area (m^2)
The body surface area (BSA) was calculated to the second decimal place by rounding a value off to two decimal places using the formula of DuBois given below. The dose (mg/body) was calculated to an integer by rounding a value off to the closest whole number, and less than 2 mg was cut off because the minimum tablet dose in this study was 2 mg. BSA=([Body weight (kg)]0.425×[Body height (cm)]0.725)×0.007184

[3] = Quantification of plasma and retinal tissue exposure after intravenous administration; assay type: in vivo, F344 nude rats; details: 30 minutes and 6 hours after administration
Description: Method: Compound 1 was administered to tumor-bearing F344 nude rats by intravenous administration. Plasma and the retina were collected 30 minutes and 6 hours after the administration. The retina samples were homogenized in phosphate-buffered saline. The plasma and the homogenized samples were analyzed by liquid chromatography-tandem mass spectrometry or high-performance liquid chromatography. The pharmacokinetics of the compound 1 were calculated by use of the non-compartmental analysis method (Methods Mol Biol 2012; 929: 377-89).

[4] = QD Step 1 Dose escalation, Lv. 6 (107.5 mg/m^2) n = 6
[5] = QOD Step 2 Expansion (340 mg/body) n = 6
[6] = administration for consecutive days

## CCc1cc(C(N)=O)ccc1-n1nc(C(C)C)c2c(-n3cnc(-c4cnn(C)c4)c3)ccnc21 [compound 1, 3-Ethyl-4-[3-(1-methylethyl)-4-[4-(1-methyl-1H-pyrazol-4-yl)-1H-imidazol-1-yl]-1H-pyrazolo[3,4-b]pyridin-1-yl]benzamide]
[1]; QD Step 1 Dose escalation, Lv. 1 to 5 (4.8-76.8 mg/m^2) n = 7
  Eye Disorder, G2: 1 (14.3) n (%)
[1]; [4]
  Eye Disorder, G2: 2 (33.3) n (%)
  Eye disorder, G1: 3 (50.0) n (%)
[1]; QD Step 1 Dose escalation, Lv. 7 (150.5 mg/m^2) n = 3
  Eye Disorder, ≥G3: 2 (66.7) n (%)
[1]; QD × 5 (5-day administration 2-day drug holiday) Step 1 Expansion (160 mg/body) n = 19
  Eye disorder, G1: 5 (26.3) n (%)
[1]; QOD Step 2 Dose escalation, Lv. 1 to 2 (107.5-150.5 mg/m^2) n = 9
  Eye disorder, G1: 2 (22.2) n (%)
[1]; QOD Step 2 Dose escalation, Lv. 3 (210.7 mg/m^2) n = 6
  Eye disorder, G1: 1 (16.7) n (%)
[1]; QOD Step 2 Dose escalation, Lv. 4 (295.0 mg/m^2) n = 5
  Eye disorder, G1: 1 (16.7) n (%)
[1]; [5]
  Eye Disorder, G2: 1 (20.0) n (%)
  Eye disorder, G1: 3 (60.0) n (%)
[1]; alternate-day administration group
  degree of eye disorder at MTD: limited to grade 1
[1]; group given administration for 5 consecutive days and 2-day withdrawal period
  degree of eye disorder at MTD: limited to grade 1
[1]; human, in vivo
  Eye Disorder, G2: 4 (6.6) n (%)
  Eye Disorder, ≥G3: 2 (3.3) n (%)
  Eye disorder, G1: 14 (23.0) n (%)
[1]; phase I clinical trial, administration for consecutive days
  side effect on vision: caused a side effect for vision impairment
[2]; [6]
  MTD converted to the fixed dose: 160 mg/body/day
  MTD: 107.5 mg/m^2/day
[2]; alternate-day administration
  MTD converted to the fixed dose: 340 mg/body/day
  MTD: 210 mg/m^2/day
[3]
  distribution in retina versus plasma: lower in the retina than in plasma
